Test results reported in patent publication US20070060533A1, “Novel inhibitor of the formation of advanced glycation end product and aldose reductase inhibitor” (Meiji Seika Kaisha Ltd., priority 2003, published 2007).

How the values were obtained:
[1] = system: AGE formation; assay: AGE formation suppression test (glucose + bovine serum albumin, fluorescence); type: biochemical; settings: 67 mmol/L phosphate buffer pH 7.2, 60° C., 48 hours
Experimental: The test was conducted by a partially modified version of the method of Morimitu et al (Morimitu. Y. et. al., Biosci. Biotech. Biochem., 59, 2018-2021 (1995)). Specifically, glucose, each test substance dissolved in DMSO, and bovine serum albumin were incubated in a 67 mmol/L phosphate buffer (pH 7.2) at 60° C. for 48 hours. AGE was thus sufficiently formed by incubation. The amount of formed AGE was discovered by dilution of the reaction solution followed by measurement using a fluorospectrophotometer. The 50% inhibition concentration (IC50) was calculated using the thus obtained value. The lower the IC50, the higher the AGE-inhibiting activity. This indicates the usefulness of a substance as an inhibitor.
(§1) The test substances used herein were the anthocyanin-containing composition prepared in Example 1 and 4 types of crystalline anthocyanin prepared in Example 2.

[2] = molecular target: T1, aldose reductase (Rattus norvegicus, UniProt P07943); assay: Aldose-reductase-inhibiting activity test (rat lens crude enzyme); type: biochemical, Wistar male rats; settings: DL glycerylaldehyde substrate, pH 7.0, 30° C.
T1 construct: the supernatant was used as a crude enzyme solution; from tissue; host or cells: lenses of Wistar male rats
Experimental: The test was conducted by a partially modified version of the method of Dufrane et al (Dufrane S. P. et al., Biochem. Med., 32, 99-105 (1984)). Specifically, the lenses of Wistar male rats were homogenized with 10 mmol/L 2-mercapto ethanol. The resultant was centrifuged, and then the supernatant was used as a crude enzyme solution. Each test substance was dissolved in DMSO and then added to a 180 mmol/L phosphate buffer (pH 7.0). 100 mmol/L lithium sulfate and 0.03 mmol/L NADPH were further added to the solution to initiate a reaction at 30° C. using 1 mmol/L DL glycerylaldehyde as a substrate. 0.5 mol/L HCl was added to stop the reaction. 6 mol/L sodium hydroxide containing 10 mmol/L imidazole was added to the solution. The solution was heated for 20 minutes at 60° C. to convert NADP to a fluorescent substance. The thus generated fluorescent substance was subjected to measurement using a fluorospectrophotometer. 50% inhibition concentration (IC50) was calculated using the thus obtained value.
as §1

| SMILES | IC50 [1] [µM] | IC50 [2] [µM] |
| --- | --- | --- |
| CC1OC(OCC2OC(Oc3cc4c(O)cc(O)cc4[o+]c3-c3cc(O)c(O)c(O)c3)C(O)C(O)C2O)C(O)C(O)C1O (stereo not shown) [Example 2 (D3R), delphinidin-3-O-rutinoside] | 163 | 15.2 |
| C[C@@H]1O[C@@H](OC[C@H]2O[C@@H](Oc3c(-c4ccc(O)c(O)c4)oc4cc(O)cc(O)c4c3=O)[C@H](O)[C@@H](O)[C@@H]2O)[C@H](O)[C@H](O)[C@H]1O [Rutin, rutin, reference compound] |  | 9 |
| N=C(N)NN [Aminoguanidine, aminoguanidine, reference compound] | 1200 |  |

The remaining compounds from weak to strong by IC50 [1], led by results:

| IC50 [1] [µM] | IC50 [2] [µM] | SMILES |
| --- | --- | --- |
| 154 | 2.5 | CC1OC(OCC2OC(Oc3cc4c(O)cc(O)cc4[o+]c3-c3ccc(O)c(O)c3)C(O)C(O)C2O)C(O)C(O)C1O (stereo not shown) [Example 2 (C3R), cyanidin-3-O-rutinoside] |
| 132 | 4.7 | OCC1OC(Oc2cc3c(O)cc(O)cc3[o+]c2-c2ccc(O)c(O)c2)C(O)C(O)C1O (stereo not shown) [Example 2 (C3G), cyanidin-3-O-glucoside] |
| 99 | 12.5 | OCC1OC(Oc2cc3c(O)cc(O)cc3[o+]c2-c2cc(O)c(O)c(O)c2)C(O)C(O)C1O (stereo not shown) [Example 2 (D3G), delphinidin-3-O-glucoside] |
